The values that follow come from ChEMBL document CHEMBL1130309, “Syntheses and anticancer activity of ribonucleoside analogues containing thio-substituted five-membered heterocyclic base” (Bioorg Med Chem Lett, 1997).

Assay [1] deals with SNB-19. Kind of assay: Compound was evaluated in vitro against NCI CNS cancer cell line SNB19. In kind it is functional, cell-based. The note with it: Homo sapiens.
For assay [2], the system named is SNB-19. Kind of assay: Compound was evaluated in vitro against NCI CNS cancer cell line SNB19; Not active. In kind it is functional, cell-based, Homo sapiens.

A word on the IC50: it is the concentration that gives 50% inhibition. Higher therefore signals a need for much substance. For the compound `Nc1nn(C2O[C@H](CO)[C@@H](O)[C@H]2O)c(=S)s1` (some centres not stated), the IC50 in assay [1] was found to be 39.4 nM.
`Nc1nn([C@@H]2O[C@H](COCc3ccccc3)[C@@H](OCc3ccccc3)[C@H]2OCc2ccccc2)c(=S)s1`: in assay [2], the IC50 entry is reported as “Not Active”.
